Assay results taken from patent US11285188B2, “Composition for preventing or treating metabolic diseases containing artemisiae capillaris herba and citrus unshiu peel complex extracts as active ingredients” (Medicare Pharmaceuticals Inc., priority 2018, dated 2022).

Test system: high-fat diet mouse model
Assay: Therapeutic effect on hyperlipidemia and hypercholesterolemia in high-fat diet mouse model (blood cholesterol and triglycerides)
Type: in vivo
Details: high-fat diet female ICR mice, oral once a day for 12 weeks; complex extracts 100 mg/kg/day, Lovastatin 20 mg/kg/day
Description: 64 six-week-old female ICR mice were purchased from SLC Co. and acclimated for one week under breeding conditions of a temperature range of 22±1° C., a humidity range of 41±1%, and a 12-hour light/12-hour dark cycle. During this period, the mice were fed a normal diet. Then, the mice were randomly divided into 16 and 48 individuals. To adapt the mice to feed, the 16 individuals (a normal diet-fed group) were fed a normal diet (CA.170481, Teklad Co.) and the 48 individuals (a high-fat diet-fed group) were fed a high-fat diet (D12451, Research Diets Co.) containing 45 kcal % fat under the same breeding conditions as above for one week.
Specifically, eight mice were selected from the normal diet-fed group and assigned to a normal diet group. 24 mice were selected from the high-fat diet-fed group, eight of which were assigned to a high-fat diet group, a high-fat diet+complex extracts administration group, and a high-fat diet+Lovastatin administration group, respectively. Each experimental group was orally administered distilled water or the Artemisiae capillaris Herba and Citrus unshiu Peel complex extracts of Examples 1-3 containing the highest content of scoparone once a day for 12 weeks. In addition, a comparison group was orally administered Lovastatin (Hanmi Pharm. Co., Ltd), which is used to treat hyperlipidemia and hypercholesterolemia, once a day for 12 weeks. In this case, the complex extracts and Lovastatin were each suspended in distilled water and administered orally. In addition, the normal group was fed a normal diet and other experimental groups were fed a high-fat diet for 12 weeks.
In the experimental groups of Experimental Example <2-1>, changes in the contents of triglycerides and cholesterol were confirmed.
Specifically, each experimental group of Experimental Example <2-1> was orally administered samples for 12 weeks. On the last day of the experiment, all animals were bled under ether inhalation anesthesia, and 1 mL of the collected blood was centrifuged for 10 minutes at 3,000 rpm to isolate plasma. The contents of total cholesterol, triglycerides, and low density lipoprotein cholesterol (LDL) in the isolated plasma were measured using an Analyst III kit (Hemagen Diagnositics Co.) according to a manufacturer's procedure, and the content of high density lipoprotein cholesterol (HDL) was measured using an AU400 kit (Olympus Co.) according to a manufacturer's procedure.

For `CC[C@H](C)C(=O)O[C@H]1C[C@@H](C)C=C2C=C[C@H](C)[C@H](CC[C@@H]3C[C@@H](O)CC(=O)O3)[C@H]21` [Lovastatin], the “Serum content HDL” value was 62.44 ± 1.96 mg/dL, the “Serum content LDL” value was 14.91 ± 0.46 mg/dL and the “Serum content Total cholesterol” value was 83.26 ± 7.40 mg/dL. The “Serum content Triglycerides” value was 81.43 ± 5.24 mg/dL.
